Assay results as given in the NIST ThermoML archive (doi:10.1021/je049585t).
Numbers after ± are expanded uncertainties.

What was measured:
[1] = Crystal
[2] = Molar enthalpy of transition or fusion; settings: Crystal

With `CC1=CCC2C(=O)OC(=O)C2C1` (configuration not stated) [4-methyl-cyclohex-4-ene-1, 2-dicarboxylic acid anhydride] the Normal melting temperature [1] was 62.39 ± 0.83 °C and the “Molar enthalpy of transition or fusion” value [2] was 17.67 ± 0.1 kJ/mol.
